Measured values from patent publication EP4559919A1, “TRICYCLIC-CONTAINING MACROCYCLIC COMPOUND AND USE THEREOF” (Medshine Discovery Inc., priority 2022, dated 2024).
Read-outs that look alike come from different tables or passages of the source.

What was measured:
TRKB = molecular target: T1, TRKB (Homo sapiens, UniProt Q16620); assay: In vitro kinase inhibitory activity assay, Experimental method 2 (ADP-Glo); type: biochemical
T1 construct: purchased Carna
Method: (§1) The kinase inhibitory activity assays of the compounds against ALK, ALK^L1196M, ALK^G1202R, ALK^G1202R/L1196M, ROS1, and TRKB were conducted at Wuhan Heyan Biotechnology Co., Ltd. or Hefei PreceDo Biotechnology Co., Ltd.
(§2) Experimental materials: ALK (G1202R/L1196M) Active and TRKB were purchased from Carna; IGF1 was purchased from GenScript; PolyE4Y1 was purchased from SIGMA; ADP-Glo™ Reagent was purchased from Promega; ATP was purchased from Promega; Kinase Detection Reagent was purchased from Promega; microplate reader ( PerkinElmer).
TRKB reaction concentration 4.47 nM, ATP concentration 5.0 µM, substrate PolyE4Y1 concentration 0.2 µg/µL. TRKB kinase buffer was 40 mM Tris-HCl (pH 7.5) + 20 mM magnesium chloride + 2.5 mM manganese chloride + 0.1mg/mL BSA+ 50 µM DTT.
(§3) ALK(G1202R/L1196M) and TRKB detection method: 2 µL of kinase and 1 µL of compound were added to a 384-well plate; 2 µL of substrate/ATP mixture was added and incubated at room temperature in the dark for 60 minutes; 5 µL of ADP-Glo™ reagent was added and incubated at room temperature for 40 minutes; 10 µL of kinase detection reagent was added and incubated at room temperature for 30 minutes; the plate was read on a microplate reader, and luminescence was recorded (integration time set to 0.5 seconds).
(§4) The IC50 value could then be derived by performing a curve fit using a four-parameter logistic model (obtained using the "log(inhibitor) vs. response -- Variable slope" mode in GraphPad Prism).

ALK(G1202R/L1196M) = molecular target: T2, ALK(G1202R/L1196M) (Homo sapiens, UniProt Q9UM73, G1202R/L1196M); assay: as above; type: biochemical
T2 construct: purchased Carna
T2 sequence (Q9UM73 19-1620 L1196M/G1202R): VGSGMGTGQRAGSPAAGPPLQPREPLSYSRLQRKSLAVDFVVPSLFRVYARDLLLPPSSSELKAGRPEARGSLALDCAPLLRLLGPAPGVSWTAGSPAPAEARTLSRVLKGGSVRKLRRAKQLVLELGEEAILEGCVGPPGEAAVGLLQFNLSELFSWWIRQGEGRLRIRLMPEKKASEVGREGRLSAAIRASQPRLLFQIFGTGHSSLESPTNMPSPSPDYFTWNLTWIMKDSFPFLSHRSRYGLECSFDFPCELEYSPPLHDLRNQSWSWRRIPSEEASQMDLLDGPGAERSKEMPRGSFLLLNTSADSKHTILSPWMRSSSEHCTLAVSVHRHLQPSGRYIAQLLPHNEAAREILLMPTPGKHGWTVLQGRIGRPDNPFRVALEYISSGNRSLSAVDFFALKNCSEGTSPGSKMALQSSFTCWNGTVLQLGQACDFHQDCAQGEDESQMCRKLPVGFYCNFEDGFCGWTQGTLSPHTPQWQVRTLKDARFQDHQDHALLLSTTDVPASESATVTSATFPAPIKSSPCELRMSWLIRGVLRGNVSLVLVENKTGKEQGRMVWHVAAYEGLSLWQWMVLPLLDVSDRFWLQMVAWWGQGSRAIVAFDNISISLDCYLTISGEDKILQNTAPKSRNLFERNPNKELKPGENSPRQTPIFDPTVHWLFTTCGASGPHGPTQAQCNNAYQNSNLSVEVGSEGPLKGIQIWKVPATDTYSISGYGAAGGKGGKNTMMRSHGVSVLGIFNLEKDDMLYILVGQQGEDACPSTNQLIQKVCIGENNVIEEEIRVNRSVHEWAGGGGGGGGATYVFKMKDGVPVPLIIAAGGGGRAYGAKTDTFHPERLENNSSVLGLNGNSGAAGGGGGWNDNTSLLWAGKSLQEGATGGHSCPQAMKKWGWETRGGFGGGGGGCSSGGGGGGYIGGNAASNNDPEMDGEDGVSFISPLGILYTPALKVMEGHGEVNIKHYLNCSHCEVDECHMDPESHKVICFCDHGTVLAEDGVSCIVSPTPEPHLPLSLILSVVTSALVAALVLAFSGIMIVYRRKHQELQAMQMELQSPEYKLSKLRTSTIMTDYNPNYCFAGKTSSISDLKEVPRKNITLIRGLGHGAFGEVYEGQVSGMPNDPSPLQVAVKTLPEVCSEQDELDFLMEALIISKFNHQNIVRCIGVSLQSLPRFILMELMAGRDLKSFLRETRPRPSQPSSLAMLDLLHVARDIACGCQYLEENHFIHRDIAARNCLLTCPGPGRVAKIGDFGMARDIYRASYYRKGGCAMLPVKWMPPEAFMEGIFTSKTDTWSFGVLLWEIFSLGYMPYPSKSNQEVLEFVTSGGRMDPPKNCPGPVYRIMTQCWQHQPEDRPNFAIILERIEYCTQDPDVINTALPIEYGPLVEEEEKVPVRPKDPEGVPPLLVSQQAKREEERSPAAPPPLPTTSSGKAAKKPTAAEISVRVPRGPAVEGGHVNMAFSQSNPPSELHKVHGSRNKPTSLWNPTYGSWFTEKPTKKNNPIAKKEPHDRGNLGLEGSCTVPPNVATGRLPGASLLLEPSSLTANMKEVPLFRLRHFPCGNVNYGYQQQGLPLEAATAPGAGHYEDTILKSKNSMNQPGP
Method: as §1, §2
Reaction system: ALK(G1202R/L1196M) reaction concentration 8.63 nM, ATP concentration 5.0 µM, substrate IGF1 concentration 0.2 µg/µL. ALK(G1202R/L1196M) kinase buffer was 40 mM Tris-HCl (pH 7.5) + 20 mM magnesium chloride + 0.1 mg/mL BSA + 50 µM DTT.
as §3, §4

Ba/F3-TEL-TRKB = assay: Anti-proliferative activity test on Ba/F3 cell lines (CellTiter-Glo); type: cell-based; conditions: Mus musculus, BaF3; 72 hours; read-out: Half maximal inhibitory concentration IC50 for cells Ba/F3-TEL-TRKB
Method: (§5) • (1) Cell culture: The cell lines were cultured in an incubator at 37°C with 5% CO2. Regular passaging was performed, and cells in the logarithmic growth phase were selected for plating; • (2) Preparation of compound storage plate: The test compounds were prepared into a 10 mM solution with DMSO (Stock Con.); The compounds were then prepared into a 1 mM solution with DMSO (Work Con.); 1 µL of the stock solution was mixed with 9 µL of DMSO to prepare a 10 µL work solution. • (3) Preparation of 1000× compound storage plate (tube): The compounds were 3-fold serially diluted from […] to the lowest concentration, for a total of 8 concentrations; • (4) Preparation of 20× compound working solution: 98 µL of cell culture medium was added to a flat-bottomed 96-well transparent drug plate. From the 1000× compound storage plate, 2 µL of the compound was pipetted into the cell culture medium in the 96-well transparent drug plate. In the solvent control, 2 µL of DMSO was added. After the compound or DMSO was added, the mixture was homogenized using a pipette. • (5) Cells were stained with trypan blue and viable cells were counted to ensure a cell viability of 90% or more. The cell concentration was adjusted to an appropriate concentration; • (6) 95 µL of cell suspension (2000 cells/well) was added to each well of the compound assay cell plate, and cell-free culture medium containing 0.1% DMSO was added to the Min control wells; • (7) Administration in the compound assay cell plate: 5 µL of 20× compound working solution was added to the cell culture plate, 5 µL of DMSO-cell culture medium mixture was added to the Max control wells, and the final concentration of DMSO was 0.1%; • (8) The culture plate was then incubated in an incubator at 37°C with 5% CO2 for 72 hours; • (9) The following operations were conducted in accordance with the instructions of the Promega CellTiter-Glo Luminescent Cell Viability Assay Kit (Promega-G7573): CellTiter-Glo buffer was thawed and brought to room temperature; CellTiter-Glo substrate was brought to room temperature; CellTiter-Glo buffer was added to a bottle of CellTiter-Glo substrate to dissolve the substrate, thereby preparing CellTiter-Glo working solution; The mixture was slowly vortexed and shaken to be fully dissolved; The cell culture plate was removed and allowed to equilibrate to room temperature for 10 minutes; 50 µL (equal to half the volume of cell culture medium in each well) of CellTiter-Glo working solution was added to each well; The culture plate was shaken on an orbital shaker for 2 minutes to induce cell lysis; The plate was then left at room temperature for 10 minutes to stabilize the luminescent signal; The luminescent signal was detected using a SpectraMax Paradigm plate reader; Cell viability assay was conducted using CellTiter-Glo luminescence method.
(§6) Data analysis: The corresponding […] value (RLU) for each well was obtained from SpectraMax Paradigm readings. […] The inhibition rates corresponding to compounds at different concentrations were calculated in Excel, and the inhibition rate curves were plotted using GraphPad Prism software to calculate relevant parameters, including the maximum and minimum inhibition rates of the cells and the IC50 value.

[1] = tested on: Ba/F3-EML4-ALK-G1202R/L1196M; assay: as above; type: cell-based; conditions: Ba/F3 EML4-ALK-G1202R-L1196M; 72 hours; read-out: Half maximal inhibitory concentration IC50 for cells Ba/F3-EML4-ALK-G1202R/L1196 M
Method: as §5, §6

[2] = Cell permeability test, MDCKII-MDR1 monolayer; type: in vitro ADME; conditions: dog, MDCK-MDR1, pH 7.4
Method: The permeability and efflux ratio of the test compounds were evaluated using the MDCKII-MDR1 monolayer cell test system to determine the potential of the compounds to cross the blood-brain barrier and to be effluxed by the P-gp transporter.
MDCKII-MDR1 cells (from the Netherlands Cancer Institute) were seeded into a 96-well cell plate (from Corning) at a cell density of 2.5 × 10^5 cells/mL and cultured for 7 days to form a confluent monolayer.
The apparent permeability coefficient (Papp, cm/s) was calculated using the following formula: Papp = (dCr / dt) × Vr /(A × C0). Herein, dCr/dt is the cumulative concentration of the compound at the receiving end per unit time (µM/s); Vr is the volume of the solution at the receiving end (the volumes of the solution at the apical and basal sides are 0.075 mL and 0.250 mL, respectively); A is the relative surface area of the cell monolayer (0.0804 cm^2); C0 is the initial concentration (nM) of the test compound at the dosing end or the peak area ratio of the control compound. The efflux ratio was calculated using the following formula: ER = Papp(BA) / Papp(AB). The recovery rate was calculated using the following formula: % Recovery = 100 × [(Vr × Cr)+(Vd × Cd)] /(Vd × C0). Herein, C0 is the initial concentration of the test compound at the dosing end (nM) or the peak area ratio of the control compound; Vd is the volume at the dosing end (0.075 mL for the apical side and 0.250 mL for the basal side); Cd and Cr are the final concentrations (nM) of the test compound at the dosing end and the receiving end or the peak area ratios of the control compound, respectively.

[3] = Experimental method 2, ATP 5.0 µM, substrate PolyE4Y1, read-out: Kinase half maximal inhibitory concentration IC50 TRKB
[4] = Experimental method 2, ATP 5.0 µM, substrate IGF1, read-out: Kinase half maximal inhibitory concentration IC50 ALK^G1202R/L1196M

T1 sequence (Q16620 32-822): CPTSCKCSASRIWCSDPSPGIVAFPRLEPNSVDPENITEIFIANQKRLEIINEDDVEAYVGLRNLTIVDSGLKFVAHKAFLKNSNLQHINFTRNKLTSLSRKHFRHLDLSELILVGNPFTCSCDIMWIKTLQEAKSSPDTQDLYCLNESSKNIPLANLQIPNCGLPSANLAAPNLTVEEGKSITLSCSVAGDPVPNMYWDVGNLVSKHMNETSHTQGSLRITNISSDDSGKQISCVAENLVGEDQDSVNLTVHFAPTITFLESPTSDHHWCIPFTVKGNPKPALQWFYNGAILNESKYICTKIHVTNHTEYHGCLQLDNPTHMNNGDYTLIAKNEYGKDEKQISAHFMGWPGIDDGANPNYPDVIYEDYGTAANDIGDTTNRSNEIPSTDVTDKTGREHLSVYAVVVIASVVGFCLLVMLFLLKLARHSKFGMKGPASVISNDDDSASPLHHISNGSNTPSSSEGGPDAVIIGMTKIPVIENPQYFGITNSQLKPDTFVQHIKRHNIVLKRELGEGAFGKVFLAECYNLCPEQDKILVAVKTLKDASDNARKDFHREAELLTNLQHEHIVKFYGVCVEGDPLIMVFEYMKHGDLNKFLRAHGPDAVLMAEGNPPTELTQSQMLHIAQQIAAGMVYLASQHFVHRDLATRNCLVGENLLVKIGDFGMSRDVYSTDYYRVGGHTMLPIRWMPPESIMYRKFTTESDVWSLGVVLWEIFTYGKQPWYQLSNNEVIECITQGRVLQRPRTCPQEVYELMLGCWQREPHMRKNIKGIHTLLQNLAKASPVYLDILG

SMILES | IC50 (TRKB; [3]) [nM] | IC50 (ALK(G1202R/L1196M); [4]) [nM] | IC50 (Ba/F3-TEL-TRKB) [nM] | IC50 [1] [nM] | other results
CON=C1NCC2(CC2)COc2ccc(F)cc2CN2c3nc4c1cnn4cc3OC[C@H]2C(F)F [Compound 011] | 3.4 | 1.7 |  |  | 
Cc1nc2cc3c4nc2n1C(=O)NC(C)(C)COc1ccc(F)cc1CN4[C@H](C(F)F)CO3 [Compound 012] |  |  | 5.2 | 7 | IC50 (TRKB): 2.9 nM; IC50 (ALK(G1202R/L1196M)): 1.5 nM
CC1(C)COc2ncc(F)cc2CN2c3nc4c(cc3OC[C@H]2C(F)F)ncn4C(=O)N1 [Compound 013] |  |  | 0.3 | 1.2 | efflux ratio at 2.5 h, 2 µM [2]: 0.77; Papp A→B at 2.5 h, 2 µM ([2]; 2 µM, 150 minutes, pH 7.40): 11.8 ×10⁻⁶ cm/s; Papp B→A at 2.5 h, 2 µM ([2]; 2 µM, 150 minutes, pH 7.40): 9.02 ×10⁻⁶ cm/s
O=C1NC2(CC2)COc2ccc(F)cc2CN2c3nc4c(cc3OC[C@H]2C(F)F)ncn41 [Compound 014] | 0.7 | 0.4 | 0.2 | 5.3 | 
Cc1nn2cc3c4nc2c1C(=O)NC(C)(C)COc1ncc(F)cc1CN4[C@H](C(F)F)CO3 [Compound 015] | 1.1 | 0.6 |  |  | 
CC1(C)COc2ccc(F)cc2CN2c3nc4c(c(C5CC5)nn4cc3OC[C@H]2C(F)F)C(=O)N1 [Compound 017] | 31.3 | 15.3 |  |  | 
CC1(C)COc2ccc(F)cc2CN2c3nc4c(c(C#CC5CC5)nn4cc3OC[C@H]2C(F)F)C(=O)N1 [Compound 020] | 10 | 1.1 |  |  | 
O=C1NC2(CCC2)COc2ccc(F)cc2CN2c3nc4c1c(Br)nn4cc3OC[C@H]2C(F)F [Compound 021] | 7 | 4 |  |  | 
O=C1N[C@H]2C[C@H](C2)Oc2ccc(F)cc2CN2c3nc4c1c(Br)nn4cc3OC[C@H]2C(F)F [Compound 023] | 1.5 | 1.2 | 1.8 | 10.8 | 
